The values below come from patent publication US8802240B2, “Uses of formulations of thyroid hormone analogs and nanoparticulate forms thereof to increase chemosensitivity and radiosensitivity in tumor or cancer cells” (Nanopharmaceuticals LLC, priority 2011, dated 2014).

The subject of test [1] is SKN-SH, SaOS2 and MCF7 cells, drug-sensitive and -resistant. In words: MTT cell viability of drug-sensitive and drug-resistant cancer cells. Format: cell-based. To be noted: 4 days. The protocol: Drug-sensitive and -resistant SKN-SH (FIGS. 13C-D), SaOS2 (FIGS. 13A-B), and MCF7 (FIGS. 13E-F) cells were subjected to treatment with increasing concentrations of Tetrac or Doxirubicin over a period of 4 days. Cell viability was then measured by MTT assay. The data represent the average of 4 determinations±SE.
Doxorubicin resistant SKN-SH/R, MCF7/R and SaOS2/R cells were subjected to treatment with Tetrac either alone or in combination with each of doxorubicin (Dox), etoposide (Etop), cisplatin (Cisp), or trichostatin A (TSA) at the indicated concentrations, After 4 days in cell viability was determined by the MTT assay and the data represented as average of 3 determinations±SE.

Another test concerns GL261 cells. In words: GL261 cell multiplicity after Tetrac exposure. Type of test: cell-based, murine. To be noted: one hour exposure to Tetrac. The protocol: Cell multiplicity (CM) was determined from Giemsa stained slides by counting the number of cells per microcolony under 20× magnification. At least 400 microcolonies were counted.
The length of time that Tetrac biologically affected GL261 cells was also determined. To do this, the multiplicity relationship defined above was utilized. Tetrac was added to cells one hour prior to the determination of the multiplicity. After the exposure of exponentially growing GL261 cells to Tetrac, the Tetrac containing medium was removed from GL261 cells, which contained an unknown residual and fresh medium (without Tetrac) was added. As a function of time (i.e., 0, 1, 2, 3, 4, 6, 8, and 10 hours, and 1-6 days), the cells, containing an unknown residual amount of remaining Tetrac, were then processed for determination of the multiplicity index (i.e. the number of cells per microcolony).

Test [2] has as its system GL261 murine brain tumor cells. In words: GL261 clonogenic survival after single doses of 250 kVp x-rays. Format: cell-based. The protocol:
To irradiate 25 cm^2 flasks, an x-ray machine was used and (Philips 250 kVp Therapeutic X-ray Machine, Einhoven, […]) operated at 250 kVp and 15 mA with added filtration of 0.4 mm Thoreaus filter. The target to source distance was approximately 30 cm. Dose rates were measured using an R-meter (Victoreen R-meter, Cleveland, Ohio), and converted to absorbed (Gy) doses using appropriate temperature, pressure, and R to Gy conversion factors. The dose rate was 1 Gy per min. Flasks were irradiated at ambient temperature.
For […] analyses, survival data lying at or below 36.8% survival were analyzed by using the log fractional survival (log F×S) versus dose (D). Data were fit using linear regression analysis (SigmaPlot, V. 10, Systat Corp., Point Richmond, Calif.) to obtain the Y-intercept (or n, the extrapolation number) and the slope (1/D0), and their 95% confidence limits. (See Goldstein, A. In: Biostatistics, New York, The MacMillan Co., 1964, p. 140-146). The D0 value (Gy) is defined as the inverse of the slope, and the corrected Dq value (Gy) was then defined using the relationship: Dq(Gy)=ln n×D0(Gy) The 95% confidence limits on Dq were defined using error propagation. (See Chase, et al., In: Principles of Radioisotope Methodology. Minneapolis, Minn. Burgess Publ. Co., 1962, p. 68, 87-90). Statistics: LQ Analysis
For LQ analyses, data lying between a fractional survival of 1.00 and 0.05 were used. The fractional survival data at each dose were transformed using the relationship (−ln F×S/D) and plotted against dose (D). A regression analysis was performed to yield the LQ equation along with their 95% confidence limit values using a t-table with the appropriate (N−1) degrees of freedom. (See Goldstein, A. In: Biostatistics, New York, The MacMillan Co., 1964, p. 140-146).
To determine the Tetrac modification factor (TMF), the survival at 2 Gy obtained for control cells was divided by the survival at 2 Gy for Tetrac treated cells. The 95% confidence limits on the ratio were determined using error propagation techniques. (See Chase, et al. In: Principles of Radioisotope Methodology, Minneapolis, Minn., Burgress Publ. Co., 1962, p. 68, 87-90).

Test [3] concerns U87MG human glioblastoma cells. In words: U87MG clonogenic survival after 250 kVp single dose x-irradiation. Format: cell-based. The protocol: To irradiate culture flasks, a Philips 250 kVp x-ray machine (Philips Corp., Fall River, Mass.) operated at 250 kVp and 15 mA with added filtration of a 0.4 mm Thoreaus filter was used. The target to source distance was 30 cm. Dose rates were measured using an R-meter (Victoreen Co., Cleveland, Ohio), and converted to absorbed (Gy) doses using appropriate temperature, pressure, and R to Gy conversion factors. The dose rate was approximately 1 Gy/min. Flasks were irradiated after being taken from a 37° C. environment and moved to the x-ray source. Movement at ambient temperature took approximately 1-2 min. Cells were next placed on ice and allowed to cool for 5 min. Lastly, flasks were placed in the Philips irradiator on top of a 2 mm thickness of Lucite which was on top of a layer of crushed ice.
The maximum time needed for irradiation of the single dose survival curve was approximately 8 min.
For SHMT analysis, data lying at or below a fractional survival (F×S) value of 0.368 were fit using a linear regression analysis of the log survival data versus linear dose. From this fit the extrapolation number (n), the quasi-threshold dose (Dq, Gy) and the inverse of the inactivation slope (Do, Gy) were derived.
For LQ analyses, survival data lying between the fractional survivals of 1.00 and 0.05 were used. The log survival data were transformed to a linear form using the relationship (−ln F×S/D) and plotted against D. A linear regression analysis was performed to yield the LQ equation along with the 95% confidence limits on the y-intercept (alpha) and the slope (beta) using a t-table with the appropriate (N−1) degrees of freedom. (See Goldstein A. Biostatistics, Academic Press, 1995.)

Take `O=C(O)Cc1cc(I)c(Oc2cc(I)c(O)c(I)c2)c(I)c1` [Tetrac, tetraiodothyroacetic acid]: in test [1] (MTT), the “anti-proliferative activity against drug-sensitive vs drug-resistant cells (in words)” value is given as “equivalent anti-proliferative activity”. In addition, the “cellular responses to doxorubicin, etoposide, cisplatin and TSA when combined with Tetrac (in words)” value in test [1] (doxorubicin resistant SKN-SH/R, MCF7/R and SaOS2/R cells) was “significantly enhanced”. Further, in the test with GL261 cells, the “time for a 50% return of the cell multiplicity factor towards control” value is on record as “approximately 2.5 days” and the “time post Tetrac treatment at which the decrease in the CM factor was at 50%” value is 60 h. For the same compound, in test [2] (2 μM, graded doses of 250 kVp x-rays), the “sensitization of oxic and hypoxic cells (in words)” value was “sensitize both oxic and hypoxic cells equally”. In addition, the “SF2 (fractional survival at 2 Gy)” value in test [2] (exponential phase with Tetrac, control 32.7) is reported as 14.2 (10.8-18.8) %. Besides, in test [2] (exponentially growing cells), the “increase of the D0 value after addition of Tetrac” value is reported as 15%, the “reduction of the Dq value after addition of Tetrac” value is 100% and the “reduction of the extrapolation number n after addition of Tetrac” value is given as 93%. In test [2] (plateau phase cells), the “reduction of n after addition of Tetrac” value is reported as 93%, the “reduction of the D0 after addition of Tetrac” value is given as 6% and the “reduction of the Dq after addition of Tetrac” value was found to be 100%. In addition, the “SF2 (fractional survival at 2 Gy)” value in test [2] (unfed plateau phase with Tetrac, control 20.6) is given as 7.6%. In test [3], the “increase of α (ratio of the alpha values, sensitization factor)” value worked out at 3.6 fold; the “isoeffect comparison at 10% survival, ratio” value is 2.2; the “ratio of relative survival values at 2 Gy” value is 4.6; the “reduction of the D0 value” was 31%. Besides, the “β (LQ)” value in test [3] (Tetrac treated cells, control 0.016 (±0.002)) is listed as 0.076 (±0.006). The “n (SHMT)” value in test [3] (Tetrac treated cells, control 2.97 (2.41-3.21)) is listed as 1.01 (0.45-2.3). The “sensitization factor, average of 3 comparisons” value in test [3] (range of 2.2 to 4.6) is listed as 3.5.
